Like-named read-outs stand apart in the source and are kept apart here.
Columns and labels:
[1] = tested on: Key Broadleaf Weed and Crop Species; experiment: Post-emergent Test II herbicidal activity (Table 5); assay type: in vivo; settings: post-emergence, 336 h, 14 days after application; for pest or weed control at 70 g/ha: application rate 70 g ai/ha; for pest or weed control at 140 g/ha: application rate 140 g ai/ha
How it was run: (§1)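 Plants grown in Metro-Mix 360 (pH 6.0–6.8) in a greenhouse (~15 h photoperiod, 23–29 °C day) to first or second true leaf stage, then sprayed with compound in acetone/DMSO/aqueous crop-oil-surfactant carrier at 187 L/ha by track sprayer. Injury visually scored 0–100% versus untreated plants after 14 d.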

[2] = tested on: Key Grass and Sedge Weeds as well as Grass Crops; experiment: Post-emergent Test II herbicidal activity (Table 6); assay type: in vivo; settings: post-emergence, 336 h; for pest or weed control at 70 g/ha: 70 g ai/ha; for pest or weed control at 140 g/ha: 140 g ai/ha
How it was run: as §1

[3] = ABUTH: velvetleaf (Abutilon theophrasti), read-out: Visual Growth Reduction (%) 14 Days After Application, ABUTH
[4] = AMARE: redroot pigweed (Amaranthus retroflexus), read-out: Visual Growth Reduction (%) 14 Days After Application, AMARE
[5] = BRSNN: oilseed-rape, canola (Brassica napus), read-out: Visual Growth Reduction (%) 14 Days After Application, BRSNN
[6] = CHEAL: lambsquarters (Chenopodium album), read-out: Visual Growth Reduction (%) 14 Days After Application, CHEAL
[7] = EPHHL: wild poinsettia (Euphorbia heterophylla), read-out: Visual Growth Reduction (%) 14 Days After Application, EPHHL
[8] = HELAN: sunflower (Helianthus annuus), read-out: Visual Growth Reduction (%) 14 Days After Application, HELAN
[9] = VIOTR: wild pansy (Viola tricolor), read-out: Visual Growth Reduction (%) 14 Days After Application, VIOTR
[10] = CYPES: yellow nutsedge (Cyperus esculentus), read-out: Visual Growth Reduction (%) 14 Days After Application, CYPES
[11] = DIGSA: crabgrass (Digitaria sanguinalis), read-out: Visual Growth Reduction (%) 14 Days After Application, DIGSA
[12] = ECHCG: barnyardgrass (Echinochloa crus-galli), read-out: Visual Growth Reduction (%) 14 Days After Application, ECHCG
[13] = ORYSA: rice (Oryza sativa), crop, read-out: Visual Growth Reduction (%) 14 Days After Application, ORYSA
[14] = SETFA: giant foxtail (Setaria faberi), read-out: Visual Growth Reduction (%) 14 Days After Application, SETFA
[15] = SORVU: grain sorghum (Sorghum vulgare), read-out: Visual Growth Reduction (%) 14 Days After Application, SORVU
[16] = TRZSS (wheat, Triticum aestivum), crop, read-out: Visual Growth Reduction (%) 14 Days After Application, TRZSS
[17] = ZEAMX: maize, corn (Zea mays), crop, read-out: Visual Growth Reduction (%) 14 Days After Application, ZEAMX

What does the source list for `COC(=O)c1nc(-c2ccccc2)nc(N)c1OC` [Compound 175]?
pest or weed control at 70 g/ha [1, 3]: 45 to 59%; pest or weed control at 140 g/ha [1, 3]: 45 to 59%; pest or weed control at 70 g/ha [1, 4]: 45 to 59%; pest or weed control at 140 g/ha [1, 4]: 95 to 100%; pest or weed control at 70 g/ha [1, 5]: 0 to 29%; pest or weed control at 140 g/ha [1, 5]: 0 to 29%; pest or weed control at 70 g/ha [1, 6]: 0 to 29%; pest or weed control at 140 g/ha [1, 6]: 30 to 44%; pest or weed control at 70 g/ha [1, 7]: 85 to 94%; pest or weed control at 140 g/ha [1, 7]: 85 to 94%; pest or weed control at 70 g/ha [1, 8]: 45 to 59%; pest or weed control at 140 g/ha [1, 8]: 60 to 74%; pest or weed control at 70 g/ha [1, 9]: 0 to 29%; pest or weed control at 140 g/ha [1, 9]: 0 to 29%; pest or weed control at 70 g/ha [2, 10]: 0 to 29%; pest or weed control at 140 g/ha [2, 10]: 0 to 29%; pest or weed control at 70 g/ha [2, 11]: 0 to 29%; pest or weed control at 140 g/ha [2, 11]: 0 to 29%; pest or weed control at 70 g/ha [2, 12]: 0 to 29%; pest or weed control at 140 g/ha [2, 12]: 0 to 29%; pest or weed control at 70 g/ha [2, 13]: 0 to 29%; pest or weed control at 140 g/ha [2, 13]: 0 to 29%; pest or weed control at 70 g/ha [2, 14]: 0 to 29%; pest or weed control at 140 g/ha [2, 14]: 0 to 29%; pest or weed control at 70 g/ha [2, 15]: 0 to 29%; pest or weed control at 140 g/ha [2, 15]: 0 to 29%; pest or weed control at 70 g/ha [2, 16]: 0 to 29%; pest or weed control at 140 g/ha [2, 16]: 0 to 29%; pest or weed control at 70 g/ha [2, 17]: 0 to 29%; pest or weed control at 140 g/ha [2, 17]: 0 to 29%; melting point: 123 to 124 °C

What does the source list for `Nc1c(F)c(-c2ccc(C(F)(F)F)c(F)c2F)nc(C(=O)O)c1Cl` [Compound 167]?
pest or weed control at 70 g/ha [1, 3]: 85 to 94%; pest or weed control at 140 g/ha [1, 3]: 95 to 100%; pest or weed control at 70 g/ha [1, 4]: 95 to 100%; pest or weed control at 140 g/ha [1, 4]: 95 to 100%; pest or weed control at 70 g/ha [1, 5]: 95 to 100%; pest or weed control at 140 g/ha [1, 5]: 95 to 100%; pest or weed control at 70 g/ha [1, 6]: 95 to 100%; pest or weed control at 140 g/ha [1, 6]: 95 to 100%; pest or weed control at 70 g/ha [1, 7]: 95 to 100%; pest or weed control at 140 g/ha [1, 7]: 95 to 100%; pest or weed control at 70 g/ha [1, 8]: 95 to 100%; pest or weed control at 140 g/ha [1, 8]: 95 to 100%; pest or weed control at 70 g/ha [1, 9]: 95 to 100%; pest or weed control at 140 g/ha [1, 9]: 85 to 94%; pest or weed control at 70 g/ha [2, 10]: 85 to 94%; pest or weed control at 140 g/ha [2, 10]: 95 to 100%; pest or weed control at 70 g/ha [2, 11]: 75 to 84%; pest or weed control at 140 g/ha [2, 11]: 75 to 84%; pest or weed control at 70 g/ha [2, 12]: 95 to 100%; pest or weed control at 140 g/ha [2, 12]: 95 to 100%; pest or weed control at 70 g/ha [2, 13]: 0 to 29%; pest or weed control at 140 g/ha [2, 13]: 0 to 29%; pest or weed control at 70 g/ha [2, 14]: 85 to 94%; pest or weed control at 140 g/ha [2, 14]: 95 to 100%; pest or weed control at 70 g/ha [2, 15]: 85 to 94%; pest or weed control at 140 g/ha [2, 15]: 85 to 94%; pest or weed control at 70 g/ha [2, 16]: 60 to 74%; pest or weed control at 140 g/ha [2, 16]: 60 to 74%; pest or weed control at 70 g/ha [2, 17]: 75 to 84%; pest or weed control at 140 g/ha [2, 17]: 85 to 94%; melting point: 69 to 70 °C

From US9113629B2, “4-amino-6-(4-substituted-phenyl)-picolinates and 6-amino-2-(4-substituted-phenyl)-pyrimidine-4-carboxylates and their use as herbicides” (DOW AGROSCIENCES LLC, priority 2013, dated 2015)
